Active and inactive are the calls of the source.
Assays:
Danio rerio = experiment: In Vivo Angiogenesis Dose-Response Confirmation. [Related pubchem assays: 732 (Assay preceding this confirmatory assay.)]; format: functional, organism-based
[1] = Luminescent dose response cell-based high throughput screening assay for inhibitors of the Janus kinase 2 mutant JAK2V617F. [Related pubchem assays: 1446 (Primary screen.), 1521 (Confirmation assay.), 1486 (Counter screen.)]; format: functional
Paired box protein Pax-8 = Paired box protein Pax-8 (Homo sapiens, UniProt Q06710); experiment: PAX8 transcriptional activity inhibition in RMG-I – RMG-I cells, luciferase, cherry-pick, dose response (AID 687027); format: functional, cell-based;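 also: luciferase reporter driven by Pax8 target thyroperoxidase promoter measured by SteadyGlo luminescence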
Paired box protein Pax-8, sequence (Q06710 whole entry): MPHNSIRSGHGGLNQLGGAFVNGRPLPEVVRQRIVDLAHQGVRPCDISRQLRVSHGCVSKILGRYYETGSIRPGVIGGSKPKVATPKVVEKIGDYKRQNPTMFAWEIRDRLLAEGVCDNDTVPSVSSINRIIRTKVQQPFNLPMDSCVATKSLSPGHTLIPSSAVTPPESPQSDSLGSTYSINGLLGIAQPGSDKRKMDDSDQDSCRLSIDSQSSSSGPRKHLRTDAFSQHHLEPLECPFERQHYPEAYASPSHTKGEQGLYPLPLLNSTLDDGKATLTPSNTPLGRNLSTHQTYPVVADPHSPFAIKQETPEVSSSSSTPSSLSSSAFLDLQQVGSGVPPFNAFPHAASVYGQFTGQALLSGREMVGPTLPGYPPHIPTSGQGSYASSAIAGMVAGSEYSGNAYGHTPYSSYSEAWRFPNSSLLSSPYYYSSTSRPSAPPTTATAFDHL

[2] = general cell-killing toxicity readout – plate reader, dry powder samples, cytotoxicity control for PAX8 inhibitor project, dose response (AID 743021); format: functional, cell-based
[3] = fluconazole-exposed Candida albicans growth modulators – fluorescence, retest, confirmation (AID 2467); format: functional, cell-based
[4] = NIH-3T3 fibroblast cytotoxicity, dose response, cytotoxicity control, cell-based, fluorescence, Alamar Blue, secondary assay (AID 2327); format: functional;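 also: NIH-3T3 mouse fibroblasts cultured with fluconazole at 8 µg/mL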
[5] = molecular target: T1, Sphingosine 1-phosphate receptor 4 (Homo sapiens, UniProt O95977); experiment: Fluorescence dose response cell-based high throughput screening assay for antagonists of the Sphingosine 1-Phosphate Receptor 4 (S1P4). [Related pubchem assays: 1524 (Confirmation in triplicates.), 1510 (Primary screen.)]; format: functional
T1 sequence (O95977 whole entry): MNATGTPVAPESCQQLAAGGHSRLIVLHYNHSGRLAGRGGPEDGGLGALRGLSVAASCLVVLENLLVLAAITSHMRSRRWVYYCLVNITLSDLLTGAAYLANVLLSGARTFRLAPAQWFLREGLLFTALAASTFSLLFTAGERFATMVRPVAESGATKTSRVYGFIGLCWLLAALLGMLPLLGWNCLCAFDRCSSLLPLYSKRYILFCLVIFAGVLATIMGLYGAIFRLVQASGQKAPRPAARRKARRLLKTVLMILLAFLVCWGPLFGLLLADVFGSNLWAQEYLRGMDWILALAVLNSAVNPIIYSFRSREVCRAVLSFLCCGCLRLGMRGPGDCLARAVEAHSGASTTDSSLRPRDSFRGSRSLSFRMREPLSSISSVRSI

[6] = viability of uninfected HEp-2 cells – cell-based, HTS, cytotoxicity control for RSV inhibitor project, dose response (AID 2410); format: functional; conditions: human respiratory syncytial virus
[7] = molecular target: Sphingosine 1-phosphate receptor 1 (Homo sapiens, UniProt P21453); format: functional;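 also: Tango beta-arrestin reporter U2OS cells stimulated with S1P near its EC80; inhibitor potency meaning antagonism of receptor activation by the natural agonist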
Sphingosine 1-phosphate receptor 1, sequence (P21453 whole entry): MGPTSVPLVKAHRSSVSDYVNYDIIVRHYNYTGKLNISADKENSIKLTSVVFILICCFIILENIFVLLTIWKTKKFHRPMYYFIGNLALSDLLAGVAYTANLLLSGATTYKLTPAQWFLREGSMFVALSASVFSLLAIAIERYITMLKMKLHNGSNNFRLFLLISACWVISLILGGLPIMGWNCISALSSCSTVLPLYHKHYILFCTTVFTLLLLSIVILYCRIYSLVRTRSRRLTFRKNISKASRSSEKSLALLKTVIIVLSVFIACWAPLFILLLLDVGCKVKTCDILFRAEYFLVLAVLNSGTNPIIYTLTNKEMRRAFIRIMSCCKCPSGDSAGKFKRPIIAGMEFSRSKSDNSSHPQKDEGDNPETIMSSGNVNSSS

[8] = molecular target: Heat shock protein HSP 90-alpha (Homo sapiens, UniProt P07900); format: functional, organism-based
[9] = Fluorescence-based cell-based high throughput dose response assay for inhibitors of the interaction of nucleotide-binding oligomerization domain containing 2 (NOD2) and the receptor-interacting serine-threonine kinase 2 (RIPK2).; format: functional; conditions: Homo sapiens
[10] = molecular target: T1, Sphingosine 1-phosphate receptor 4; experiment: Late stage fluorescence dose response cell-based screening assay for antagonists of the Sphingosine 1-Phosphate Receptor 4 (S1P4). [Related pubchem assays: 1524 (Confirmation screen (S1P4 antagonists).), 1510 (Primary screen (S1P4 antagonists).), 1853 (Summary AID (S1P4 antagonists).), 1692 (Dose response screen (S1P4 antagonists).)]; format: functional
Fatty acid synthase [11] = molecular target: T2, Fatty acid synthase (Homo sapiens, UniProt P49327); experiment: inhibition of human FAS-TE enzyme activity – biochemical, endpoint fluorescence intensity, uHTS hits, dose response (AID 624327); format: functional;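 also: fluorescence from hydrolysis of an O-methyl fluorescein acyl ester substrate by the enzyme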
T2 sequence (P49327 whole entry): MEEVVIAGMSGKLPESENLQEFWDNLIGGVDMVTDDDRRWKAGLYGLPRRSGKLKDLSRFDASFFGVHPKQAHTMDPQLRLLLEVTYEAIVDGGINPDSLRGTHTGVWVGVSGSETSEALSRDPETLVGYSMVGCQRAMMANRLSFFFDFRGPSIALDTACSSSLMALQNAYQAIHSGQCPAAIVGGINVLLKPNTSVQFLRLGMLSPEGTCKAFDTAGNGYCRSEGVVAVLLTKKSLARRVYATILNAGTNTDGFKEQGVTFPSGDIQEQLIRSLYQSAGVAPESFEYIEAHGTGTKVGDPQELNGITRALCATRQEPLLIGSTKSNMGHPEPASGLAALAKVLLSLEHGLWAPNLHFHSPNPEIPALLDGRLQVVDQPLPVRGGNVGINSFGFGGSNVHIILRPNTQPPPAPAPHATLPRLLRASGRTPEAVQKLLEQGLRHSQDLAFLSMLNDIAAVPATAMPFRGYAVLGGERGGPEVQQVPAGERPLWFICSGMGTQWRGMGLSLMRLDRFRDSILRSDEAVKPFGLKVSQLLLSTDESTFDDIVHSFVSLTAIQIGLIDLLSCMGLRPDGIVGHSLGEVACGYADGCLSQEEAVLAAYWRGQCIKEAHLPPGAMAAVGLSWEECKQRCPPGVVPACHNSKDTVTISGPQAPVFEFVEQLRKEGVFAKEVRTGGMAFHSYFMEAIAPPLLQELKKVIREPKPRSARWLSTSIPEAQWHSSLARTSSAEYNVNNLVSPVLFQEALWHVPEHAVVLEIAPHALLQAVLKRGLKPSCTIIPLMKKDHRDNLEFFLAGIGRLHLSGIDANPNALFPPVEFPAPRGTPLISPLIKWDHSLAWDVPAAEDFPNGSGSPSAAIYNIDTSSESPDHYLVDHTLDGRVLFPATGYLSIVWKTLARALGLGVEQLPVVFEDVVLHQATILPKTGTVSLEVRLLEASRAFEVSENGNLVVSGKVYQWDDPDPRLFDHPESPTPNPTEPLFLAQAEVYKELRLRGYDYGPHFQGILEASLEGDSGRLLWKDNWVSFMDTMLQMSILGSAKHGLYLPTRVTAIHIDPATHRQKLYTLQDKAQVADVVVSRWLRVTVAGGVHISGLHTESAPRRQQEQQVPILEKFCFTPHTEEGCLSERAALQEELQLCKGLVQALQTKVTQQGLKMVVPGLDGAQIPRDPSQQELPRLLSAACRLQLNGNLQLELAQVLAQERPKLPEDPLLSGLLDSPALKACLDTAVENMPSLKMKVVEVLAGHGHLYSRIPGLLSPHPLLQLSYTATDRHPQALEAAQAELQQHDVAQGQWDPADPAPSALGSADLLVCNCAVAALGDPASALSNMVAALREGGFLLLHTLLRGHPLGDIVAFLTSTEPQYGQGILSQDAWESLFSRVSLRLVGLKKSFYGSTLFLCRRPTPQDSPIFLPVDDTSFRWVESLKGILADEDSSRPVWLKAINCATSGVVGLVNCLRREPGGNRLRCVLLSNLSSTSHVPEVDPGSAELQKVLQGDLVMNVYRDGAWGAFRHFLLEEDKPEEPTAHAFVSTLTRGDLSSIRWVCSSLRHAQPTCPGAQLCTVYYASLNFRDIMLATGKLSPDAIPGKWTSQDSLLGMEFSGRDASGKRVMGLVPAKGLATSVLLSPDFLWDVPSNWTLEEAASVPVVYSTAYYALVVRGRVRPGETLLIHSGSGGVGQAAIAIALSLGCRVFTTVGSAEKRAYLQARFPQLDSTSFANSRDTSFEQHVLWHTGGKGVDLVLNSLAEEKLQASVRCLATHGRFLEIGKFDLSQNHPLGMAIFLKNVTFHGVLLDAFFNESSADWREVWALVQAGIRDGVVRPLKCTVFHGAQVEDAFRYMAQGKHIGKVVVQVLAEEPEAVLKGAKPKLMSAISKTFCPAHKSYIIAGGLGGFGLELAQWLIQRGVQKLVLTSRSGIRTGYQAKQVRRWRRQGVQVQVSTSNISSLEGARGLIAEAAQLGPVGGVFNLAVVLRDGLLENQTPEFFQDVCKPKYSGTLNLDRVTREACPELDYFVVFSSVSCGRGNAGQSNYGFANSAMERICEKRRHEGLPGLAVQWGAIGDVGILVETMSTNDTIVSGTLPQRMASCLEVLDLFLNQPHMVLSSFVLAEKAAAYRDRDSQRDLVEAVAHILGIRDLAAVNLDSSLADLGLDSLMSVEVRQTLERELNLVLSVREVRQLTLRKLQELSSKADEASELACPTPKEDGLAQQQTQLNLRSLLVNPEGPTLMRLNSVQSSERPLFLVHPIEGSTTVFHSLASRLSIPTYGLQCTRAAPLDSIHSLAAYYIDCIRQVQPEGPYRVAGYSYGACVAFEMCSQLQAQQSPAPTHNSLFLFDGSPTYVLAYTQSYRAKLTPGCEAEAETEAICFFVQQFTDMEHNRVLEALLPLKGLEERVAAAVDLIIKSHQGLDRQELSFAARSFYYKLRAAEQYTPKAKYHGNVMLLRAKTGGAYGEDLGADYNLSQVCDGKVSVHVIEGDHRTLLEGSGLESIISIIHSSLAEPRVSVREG

[12] = molecular target: T3, Replicative DNA helicase DnaB (Mycobacterium tuberculosis, UniProt P9WMR3); experiment: DnaB intein splicing inhibitors, dose response, biochemical, cell-free fluorescence (AID 449749); format: functional
T3 sequence (P9WMR3 whole entry): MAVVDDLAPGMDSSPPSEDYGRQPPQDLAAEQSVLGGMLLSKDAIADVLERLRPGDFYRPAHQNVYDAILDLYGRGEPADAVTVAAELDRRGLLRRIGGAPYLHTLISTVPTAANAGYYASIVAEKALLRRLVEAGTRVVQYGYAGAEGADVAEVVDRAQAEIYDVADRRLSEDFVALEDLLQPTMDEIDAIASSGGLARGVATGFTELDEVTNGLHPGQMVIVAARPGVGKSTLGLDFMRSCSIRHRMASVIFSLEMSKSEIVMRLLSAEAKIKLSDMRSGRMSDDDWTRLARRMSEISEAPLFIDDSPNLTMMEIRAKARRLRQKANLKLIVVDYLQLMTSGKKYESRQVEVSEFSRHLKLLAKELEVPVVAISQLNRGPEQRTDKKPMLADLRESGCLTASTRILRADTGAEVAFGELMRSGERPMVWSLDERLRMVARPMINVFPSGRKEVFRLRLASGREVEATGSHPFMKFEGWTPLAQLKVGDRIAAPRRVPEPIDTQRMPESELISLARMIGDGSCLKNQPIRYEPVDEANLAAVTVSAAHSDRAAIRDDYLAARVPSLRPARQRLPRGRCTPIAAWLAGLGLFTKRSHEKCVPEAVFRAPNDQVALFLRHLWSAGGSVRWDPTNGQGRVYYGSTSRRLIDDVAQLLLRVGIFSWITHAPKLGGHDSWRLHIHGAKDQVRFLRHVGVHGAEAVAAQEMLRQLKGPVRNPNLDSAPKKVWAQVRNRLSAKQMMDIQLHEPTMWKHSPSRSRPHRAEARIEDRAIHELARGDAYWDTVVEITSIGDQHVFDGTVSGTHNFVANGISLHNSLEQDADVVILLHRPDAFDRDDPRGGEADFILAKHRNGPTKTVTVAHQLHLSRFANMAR

Protein RecA = molecular target: T4, Protein RecA (Mycobacterium tuberculosis, UniProt P9WHJ3); experiment: Fluorescence Cell-Free Homogeneous Dose Retest to Identify Inhibitors of RecA-Intein Splicing Activity. [Related pubchem assays (depositor defined):AID2097, AID2223, AID489010, AID492950]; format: functional
T4 sequence (P9WHJ3 whole entry): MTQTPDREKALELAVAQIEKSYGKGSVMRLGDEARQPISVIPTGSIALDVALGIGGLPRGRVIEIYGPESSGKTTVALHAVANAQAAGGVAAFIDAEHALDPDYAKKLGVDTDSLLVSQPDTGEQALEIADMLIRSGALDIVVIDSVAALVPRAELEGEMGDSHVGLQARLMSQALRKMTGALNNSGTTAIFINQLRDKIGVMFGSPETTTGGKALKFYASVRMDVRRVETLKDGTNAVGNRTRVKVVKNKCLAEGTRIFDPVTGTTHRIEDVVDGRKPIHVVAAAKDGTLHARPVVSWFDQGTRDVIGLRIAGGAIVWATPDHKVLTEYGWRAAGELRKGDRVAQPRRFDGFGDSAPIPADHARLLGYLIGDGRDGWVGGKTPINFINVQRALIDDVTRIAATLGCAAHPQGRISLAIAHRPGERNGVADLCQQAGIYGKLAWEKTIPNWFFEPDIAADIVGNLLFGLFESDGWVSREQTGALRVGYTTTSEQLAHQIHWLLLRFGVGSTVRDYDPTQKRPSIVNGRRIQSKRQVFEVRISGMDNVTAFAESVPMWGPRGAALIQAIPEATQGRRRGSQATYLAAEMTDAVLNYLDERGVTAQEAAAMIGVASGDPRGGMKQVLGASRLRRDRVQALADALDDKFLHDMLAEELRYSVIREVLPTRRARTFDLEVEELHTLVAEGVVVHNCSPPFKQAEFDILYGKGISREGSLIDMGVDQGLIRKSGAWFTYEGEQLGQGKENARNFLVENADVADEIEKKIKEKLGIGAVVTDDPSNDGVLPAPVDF

Beta Lactamase = Beta Lactamase (Pseudomonas aeruginosa, UniProt Q932Y6); experiment: BLA reporter interference, concentration series – BLA reporter cells, FRET fluorescence, artefact control for NOD2-RIPK2 interaction inhibitor project, dose response (AID 651552); format: functional, cell-based
Beta Lactamase, sequence (Q932Y6 whole entry): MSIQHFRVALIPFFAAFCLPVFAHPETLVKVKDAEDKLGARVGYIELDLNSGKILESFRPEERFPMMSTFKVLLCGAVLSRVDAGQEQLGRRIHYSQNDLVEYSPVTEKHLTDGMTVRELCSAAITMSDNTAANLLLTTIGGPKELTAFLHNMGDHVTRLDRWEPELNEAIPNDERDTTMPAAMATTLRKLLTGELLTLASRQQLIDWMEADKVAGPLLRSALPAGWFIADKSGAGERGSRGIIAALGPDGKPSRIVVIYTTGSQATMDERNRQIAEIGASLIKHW

Fatty acid synthase [13] = molecular target: T2, Fatty acid synthase; experiment: inhibition of human FAS-TE enzyme activity – biochemical, kinetic fluorescence intensity, dose response (AID 624326); format: functional;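 also: rate of fluorescence rise from hydrolysis of a fluorogenic O-methyl fluorescein ester substrate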
[14] = molecular target: T5, Polyadenylate-binding protein 1 (Homo sapiens, UniProt P11940); experiment: MLLE domain peptide-binding blockers, IC50 – biochemical, fluorescence polarization, FITC-PAM2 peptide, dose response (AID 602259); format: functional; conditions: read-out: IC50_Mean
T5 sequence (P11940 whole entry, the tested form may be a part): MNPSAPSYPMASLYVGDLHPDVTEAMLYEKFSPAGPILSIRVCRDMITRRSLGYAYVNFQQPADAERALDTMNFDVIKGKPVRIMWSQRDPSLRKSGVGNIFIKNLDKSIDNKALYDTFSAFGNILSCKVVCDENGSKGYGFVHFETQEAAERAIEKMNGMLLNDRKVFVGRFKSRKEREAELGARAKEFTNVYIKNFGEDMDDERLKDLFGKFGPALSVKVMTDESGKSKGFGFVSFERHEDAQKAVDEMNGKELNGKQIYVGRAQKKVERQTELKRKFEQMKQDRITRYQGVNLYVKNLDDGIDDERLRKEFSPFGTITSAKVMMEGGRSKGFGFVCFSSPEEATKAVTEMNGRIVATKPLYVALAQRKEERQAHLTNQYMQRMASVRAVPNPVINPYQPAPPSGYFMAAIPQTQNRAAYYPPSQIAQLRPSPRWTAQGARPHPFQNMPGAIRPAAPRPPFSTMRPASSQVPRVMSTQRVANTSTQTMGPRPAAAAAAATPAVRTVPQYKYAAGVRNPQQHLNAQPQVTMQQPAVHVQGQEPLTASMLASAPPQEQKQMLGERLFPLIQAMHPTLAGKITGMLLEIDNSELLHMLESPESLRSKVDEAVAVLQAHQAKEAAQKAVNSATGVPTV

[15] = molecular target: Protein-tyrosine kinase 2-beta (Homo sapiens, UniProt Q14289);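 also: potency of inhibitors of PYK2 kinase phosphorylation of poly-GT substrate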
[16] = molecular target: T5, Polyadenylate-binding protein 1; experiment: MLLE binding blockers, Cy5 peptide tracer – biochemical, fluorescence polarization, Cy5-PAM2 peptide, secondary, miRNA deadenylation inhibitor project, dose response (AID 602260); format: functional; conditions: read-out: IC50_Mean
[17] = M. tuberculosis H37Rv growth inhibitors, H37Rv strain (AID 1626); format: functional
[18] = A cytotoxicity screen of small molecule inhibitors of the PhoP region in Salmonella typhi identified in the primary screen. [Related pubchem assays: 1850, 1864, 1985 ]; format: functional
Bcl-2-related protein A1 = molecular target: T6, Bcl-2-related protein A1 (Mus musculus, UniProt Q07440); format: functional;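 also: confirmatory dose–response counterscreen on Bfl-1, used to check hits from a UBC13 polyubiquitin inhibitor campaign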
T6 sequence (Q07440 whole entry): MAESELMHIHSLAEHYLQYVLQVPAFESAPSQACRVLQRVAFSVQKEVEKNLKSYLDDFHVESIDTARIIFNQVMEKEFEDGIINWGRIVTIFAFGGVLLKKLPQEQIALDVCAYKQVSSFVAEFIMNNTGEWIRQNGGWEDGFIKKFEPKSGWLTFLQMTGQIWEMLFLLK

[19] = mitochondrial function rescue without frataxin homolog – Friedreich's ataxia, plus single-dose screen, dose response (AID 1465); format: functional;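 also: yeast depleted of Yfh1p frataxin homolog grown on glycerol needing respiration; WST-1 tetrazolium dye reduction as measure of cellular dehydrogenase metabolic activity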
[20] = molecular target: T7, Ubiquitin-conjugating enzyme E2 N (Homo sapiens, UniProt P61088); format: functional
T7 sequence (P61088 whole entry): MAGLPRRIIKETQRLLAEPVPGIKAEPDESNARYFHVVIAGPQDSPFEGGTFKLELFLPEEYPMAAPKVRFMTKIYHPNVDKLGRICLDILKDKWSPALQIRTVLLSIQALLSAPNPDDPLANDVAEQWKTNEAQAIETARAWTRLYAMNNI

[21] = molecular target: T7, Ubiquitin-conjugating enzyme E2 N; format: functional; remark: listed apart in the source
Hexokinase HKDC1 = molecular target: T8, Hexokinase HKDC1 (Homo sapiens, UniProt Q2TB90); experiment: inhibition of HKDC1 glucose phosphorylation – biochemical, W721R variant, dose response (AID 504729); format: functional
T8 sequence (Q2TB90 whole entry): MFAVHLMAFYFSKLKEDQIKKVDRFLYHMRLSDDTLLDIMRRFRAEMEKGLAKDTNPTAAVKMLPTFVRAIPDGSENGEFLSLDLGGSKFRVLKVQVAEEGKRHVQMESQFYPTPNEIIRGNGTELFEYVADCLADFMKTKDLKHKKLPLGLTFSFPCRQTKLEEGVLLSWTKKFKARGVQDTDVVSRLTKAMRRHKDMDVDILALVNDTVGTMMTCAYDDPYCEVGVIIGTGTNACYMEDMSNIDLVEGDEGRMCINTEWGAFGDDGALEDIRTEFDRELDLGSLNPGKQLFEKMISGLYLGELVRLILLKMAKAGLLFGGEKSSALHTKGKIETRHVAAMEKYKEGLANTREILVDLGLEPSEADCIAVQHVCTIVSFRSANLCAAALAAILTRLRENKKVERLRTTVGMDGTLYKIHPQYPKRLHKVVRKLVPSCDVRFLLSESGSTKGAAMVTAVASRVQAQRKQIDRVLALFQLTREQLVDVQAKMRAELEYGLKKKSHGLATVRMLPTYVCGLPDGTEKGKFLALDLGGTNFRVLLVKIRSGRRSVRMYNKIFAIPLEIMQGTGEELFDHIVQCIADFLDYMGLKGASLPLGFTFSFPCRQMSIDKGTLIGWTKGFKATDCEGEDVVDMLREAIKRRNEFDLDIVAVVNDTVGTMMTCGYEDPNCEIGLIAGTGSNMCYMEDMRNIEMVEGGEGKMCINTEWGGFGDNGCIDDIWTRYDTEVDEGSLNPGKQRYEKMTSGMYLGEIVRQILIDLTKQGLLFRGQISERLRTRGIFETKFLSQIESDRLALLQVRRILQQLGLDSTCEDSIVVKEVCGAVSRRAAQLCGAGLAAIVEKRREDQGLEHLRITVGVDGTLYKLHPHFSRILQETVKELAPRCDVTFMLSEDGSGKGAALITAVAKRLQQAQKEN

Bcl-2-like protein 1 = Bcl-2-like protein 1 (Homo sapiens, UniProt Q07817); experiment: blockers of BCLXL peptide binding – biochemical, fluorescence polarization, 1536-well, selectivity assay for MCL1 inhibitor project, dose response (AID 2218)
Bcl-2-like protein 1, sequence (Q07817 whole entry): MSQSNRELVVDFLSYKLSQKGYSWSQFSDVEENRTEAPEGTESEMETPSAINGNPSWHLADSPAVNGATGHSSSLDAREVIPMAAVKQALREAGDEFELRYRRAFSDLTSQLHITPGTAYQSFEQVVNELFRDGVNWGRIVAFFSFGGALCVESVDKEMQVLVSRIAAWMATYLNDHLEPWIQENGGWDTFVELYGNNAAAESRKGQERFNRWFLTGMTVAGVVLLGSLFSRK

[22] = molecular target: Induced myeloid leukemia cell differentiation protein Mcl-1 (Homo sapiens, UniProt Q07820); experiment: blockers of MCL1 binding to BIM peptide – biochemical, fluorescence polarization, BIM-BH3 peptide, 1536-well, dose response (AID 2217)
Induced myeloid leukemia cell differentiation protein Mcl-1, sequence (Q07820 whole entry): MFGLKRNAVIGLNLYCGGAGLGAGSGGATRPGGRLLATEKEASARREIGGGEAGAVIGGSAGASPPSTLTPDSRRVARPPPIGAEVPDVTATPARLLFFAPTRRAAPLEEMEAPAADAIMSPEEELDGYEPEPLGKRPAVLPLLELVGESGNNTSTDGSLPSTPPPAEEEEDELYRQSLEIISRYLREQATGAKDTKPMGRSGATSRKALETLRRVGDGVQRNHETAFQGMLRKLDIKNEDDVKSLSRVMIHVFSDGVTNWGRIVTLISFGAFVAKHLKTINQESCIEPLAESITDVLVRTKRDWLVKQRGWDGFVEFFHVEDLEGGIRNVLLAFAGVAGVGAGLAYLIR

Cc1ccc2c(c1)/C(=C1/Nc3ccc(Br)cc3/C1=N\OCCN1CCNCC1)C(=O)N2
IC50 (Danio rerio): 3.28 µM (not active)

O=C(CCl)/N=c1\sccn1Cc1cccc2ccccc12
IC50 [1]: 0.224 µM (active)
AC50 (Paired box protein Pax-8): 0.572 µM (active)
AC50 [2]: 1.66 µM (active)

O=C(Nc1ccccc1)c1nnsc1S(=O)(=O)c1ccc(Cl)cc1
EC50 [3]: > 38 µM (not active)
EC50 [4]: 9.03 µM (active)
IC50 [5]: 1.04 µM (active)
CC50 [6]: 13.4 µM (active)
IC50 [7]: 23.4 µM (not active)
AC50 [8]: 0.293 µM (active)
IC50 [9]: 3.5 µM (active)
IC50 [10]: 11.2 µM (not active)
IC50 (Fatty acid synthase [11]): 8 µM (active)
AC50 [12]: 3.53 µM (active)
EC50 (Protein RecA): 5.71 µM (active)
IC50 (Beta Lactamase): 18.8 µM (inactive)
IC50 (Fatty acid synthase [13]): 5.14 µM (active)

CCOC(=O)CSc1nc(C2CC2)nc2ccccc12
IC50 [14]: > 66 µM (inactive)
IC50 [15]: > 69.5 µM (not active)
IC50 [16]: > 66 µM (inactive)

Cc1cc(C(=O)Cn2cncn2)c(C)n1CCc1ccc(F)cc1
IC50 [17]: > 100 µM (active)
EC50 [18]: > 50 µM (active)

COc1ccc(C(=O)NC(=S)NNC(=O)c2ccc(NC(C)=O)cc2)cc1Br
IC50 (Bcl-2-related protein A1): > 20 µM (inactive)
EC50 [19]: > 100 µM (active)
IC50 [20]: 18.3 µM (active)
IC50 [21]: 18.1 µM (active)

Cc1ccc(/N=C/c2cc(Cc3ccccc3Cl)cc([N+](=O)[O-])c2O)c(O)c1
EC50 [3]: 1.78 µM (active)
IC50 (Hexokinase HKDC1): 28.5 µM (inactive)
EC50 [4]: 11.3 µM (active)
AC50 [8]: 1.61 µM (active)
IC50 (Bcl-2-like protein 1): 7.22 µM (active)
IC50 [22]: 9.13 µM (active)
